Measured values: patent US20110294766A1, “16 Alpha, 17 Alpha-Acetal Glucocorticosteroidal Derivatives and their Use” (AstraZeneca AB, priority 2008, published 2011)

Target: T1, recombinant human GR (Homo sapiens, UniProt P04150)
T1 construct: purchased Panvera/Invitrogen P2812 (kit P2893)
T1 sequence (P04150 1-777): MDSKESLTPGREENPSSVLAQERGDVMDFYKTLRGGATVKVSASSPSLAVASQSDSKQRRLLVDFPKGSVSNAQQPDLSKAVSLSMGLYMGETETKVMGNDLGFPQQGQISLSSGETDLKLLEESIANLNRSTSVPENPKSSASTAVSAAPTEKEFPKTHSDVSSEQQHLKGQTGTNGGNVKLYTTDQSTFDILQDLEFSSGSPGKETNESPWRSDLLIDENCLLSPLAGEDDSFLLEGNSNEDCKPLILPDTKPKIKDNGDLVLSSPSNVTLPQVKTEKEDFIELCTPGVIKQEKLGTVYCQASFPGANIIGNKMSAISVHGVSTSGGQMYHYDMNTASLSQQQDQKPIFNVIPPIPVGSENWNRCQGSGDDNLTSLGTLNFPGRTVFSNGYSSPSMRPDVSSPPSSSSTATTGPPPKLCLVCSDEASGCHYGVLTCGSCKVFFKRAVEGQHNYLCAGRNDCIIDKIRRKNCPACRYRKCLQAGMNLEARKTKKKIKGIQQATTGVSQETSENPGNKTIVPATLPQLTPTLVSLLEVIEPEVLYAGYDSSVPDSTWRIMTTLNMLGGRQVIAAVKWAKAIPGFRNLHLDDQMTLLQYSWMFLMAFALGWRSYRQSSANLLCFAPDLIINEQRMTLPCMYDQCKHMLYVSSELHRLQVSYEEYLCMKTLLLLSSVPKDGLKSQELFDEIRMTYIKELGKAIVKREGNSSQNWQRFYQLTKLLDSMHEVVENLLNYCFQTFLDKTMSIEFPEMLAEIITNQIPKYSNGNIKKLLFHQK
Assay: Human Glucocorticoid Receptor (GR) Assay (fluorescence polarization, Panvera/Invitrogen kit)
Settings: GS Red tracer, 2 hours at room temperature, 100% control 10 μM Dexamethasone, read-out: Inhibition of GR binding, IC50
In short: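 Fluorescence polarization competition binding of compounds against Fluoromone GS Red tracer on recombinant human GR, in buffer of potassium phosphate, sodium molybdate, EDTA, DMSO with stabilizing peptide and DTT. Incubated 2 h at room temperature in the dark; read at ex 530/em 590 nm. Controls: DMSO (0%), 10 μM dexamethasone (100%).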

IC50: 0.57 nM
SMILES: C[C@]12C=CC(=O)C=C1[C@@H](F)C[C@H]1[C@@H]3C[C@H]4OC(c5ccccc5F)O[C@@]4(C(=O)SCF)[C@@]3(C)C[C@H](O)[C@@]12F (stereo partly drawn) [Example 21, S-(Fluoromethyl)(4aS,4bR,5S,6aS,6bS,9aR,10aS,10bS,12S)-4b,12-difluoro-8-(2-fluorophenyl)-5-hydroxy-4a,6a-dimethyl-2-oxo-2,4a,4b,5,6,6a,9a,10,10a,10b,11,12-dodecahydro-6bH-naphtho[2′,1′:4,5]indeno[1,2-d][1,3]dioxole-6b-carbothioate]
